Test results: PubChem BioAssay (NCI)
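Method: 48-hour compound exposure of cells in 96-well plates, five concentrations, linear interpolation of endpoints. Definition used: TGI = concentration required for complete inhibition of growth.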

Experiments:
Experiment in all cases: NCI tumour cell line growth inhibition, 48 h
[1] = test system: NCI-H23 lung
[2] = test system: NCI-H226 lung
[3] = test system: OVCAR-5 ovarian
[4] = test system: IGROV1 ovarian
[5] = test system: U251 CNS
[6] = test system: RPMI-8226 leukemia
[7] = test system: MCF7 breast
[8] = test system: DMS 273 small cell lung
[9] = test system: SNB-78 CNS
[10] = test system: SF-268 CNS
[11] = test system: HCT-116 colon
[12] = test system: UACC-62 melanoma
[13] = test system: OVCAR-8 ovarian
[14] = test system: SNB-75 CNS
[15] = test system: MOLT-4 leukemia
[16] = test system: SNB-19 CNS
[17] = test system: UO-31 renal
[18] = test system: CAKI-1 renal
[19] = test system: KM20L2 colon
[20] = test system: HOP-18 NSCLC
[21] = test system: HCC-2998 colon
[22] = test system: SK-MEL-5 melanoma
[23] = test system: SN12C renal
[24] = test system: SK-OV-3 ovarian
[25] = test system: DLD-1 colon
[26] = test system: SF-539 CNS
[27] = test system: SF-295 CNS
[28] = test system: MALME-3M melanoma
[29] = test system: K-562 leukemia
[30] = test system: HL-60(TB) leukemia
[31] = test system: HT29 colon
[32] = test system: HOP-92 NSCLC
[33] = test system: CCRF-CEM leukemia
[34] = test system: OVCAR-4 ovarian
[35] = test system: P388 leukemia
[36] = test system: SK-MEL-28 melanoma
[37] = test system: OVCAR-3 ovarian
[38] = test system: RXF 393 renal
[39] = test system: UACC-257 melanoma
[40] = test system: NCI/ADR-RES ovarian
[41] = test system: A549 NSCLC
[42] = test system: M19-MEL melanoma
[43] = test system: SN12K1 renal
[44] = test system: LOX IMVI melanoma
[45] = test system: HCT-15 colon
[46] = test system: P388/ADR leukemia
[47] = test system: HOP-62 NSCLC
[48] = test system: A498 renal
[49] = test system: EKVX NSCLC
[50] = test system: NCI-H522 lung
[51] = test system: NCI-H460 lung
[52] = test system: COLO 205 colon
[53] = test system: KM12 colon
[54] = test system: SK-MEL-2 melanoma
[55] = test system: 786-0 renal
[56] = test system: RXF-631 renal
[57] = test system: ACHN renal
[58] = test system: TK-10 renal
[59] = test system: SW-620 colon
[60] = test system: LXFL 529 NSCLC
[61] = test system: SR leukemia
[62] = test system: XF 498 CNS
[63] = test system: M14 melanoma
[64] = test system: DMS 114 small cell lung

Measured: TGI

COc1ccc(C2COc3cc(O)c(O)cc3C2)cc1 (stereo not given)
146 µM: [54]
204 µM: [31]
181 µM: [39]
213 µM: [2] | [51]
27.1 µM: [40]
268 µM: [9]
160 µM: [8]
18.7 µM: [35]
184 µM: [21]
279 µM: [17]
27.8 µM: [52]
45.6 µM: [34]
25.2 µM: [6]
221 µM: [19]
98.9 µM: [43]
42.1 µM: [11]
166 µM: [23]
16.1 µM: [33]
24.6 µM: [15]
232 µM: [47]
14.1 µM: [50]
99.3 µM: [45]
34.2 µM: [29]
86.6 µM: [42]
176 µM: [7]
63.3 µM: [13]
136 µM: [26]
20.3 µM: [38]
72.4 µM: [22]
127 µM: [10]
110 µM: [20]
205 µM: [27]
163 µM: [24]
500 µM: [44]
164 µM: [14] | [53]
8.53 µM: [46]
28.1 µM: [37]
32.9 µM: [36]
264 µM: [3]
49.9 µM: [49]
5.41 µM: [30]
17.4 µM: [48]
46.3 µM: [12]
214 µM: [16]
159 µM: [1]
24 µM: [32]
25.3 µM: [25]
59.3 µM: [28]
52.9 µM: [18]
188 µM: [41]
148 µM: [4]
77.8 µM: [5]

CCOC(=O)NC(=O)c1cn(CCCOC(=O)CCCCCCCCCCC(=O)OCCCn2cc(C(=O)NC(=O)OCC)c(=O)[nH]c2=O)c(=O)[nH]c1=O
not listed: [7] | [8] | [14] | [18] | [35] | [38] | [40] | [43] | [45] | [46] | [48] | [50] | [64]
> 100 µM: all other assays above

O=C1[C@@H]2C(c3ccccc3F)=NO[C@@H]2C(=O)N1c1ccc(Cc2ccc(N3C(=O)[C@H]4C(c5ccccc5F)=NO[C@H]4C3=O)cc2)cc1
> 70.8 µM: [33]
> 31.6 µM: [58]
> 83.3 µM: [6]
34.7 µM: [30]
> 64.4 µM: [15]
> 81.3 µM: [38]
not listed: [7] | [35] | [40] | [43] | [46]
> 100 µM: all other assays above

C=CC/C=C/C/C=C/CCCCCCCc1cccc(O)c1C(=O)O
75 µM: [32]
89.6 µM: [36]
79.1 µM: [17]
79.8 µM: [24]
75.9 µM: [1]
80.8 µM: [10]
65.3 µM: [20]
46 µM: [5]
67.5 µM: [47]
not listed: [2] | [7] | [22] | [23] | [35] | [38] | [40] | [43] | [46] | [48]
> 100 µM: all other assays above

Nc1ccn(C2OC(CO)C(O)C2O)c(=O)c1 (stereo not given)
< 0.0625 µM: [62]
365 µM: [28]
381 µM: [23]
446 µM: [44]
524 µM: [6]
403 µM: [47]
not listed: [3] | [15] | [29] | [39] | [42] | [46] | [48] | [49] | [54] | [55] | [56] | [57] | [58] | [60] | [61] | [63] | [64]
> 625 µM: all other assays above
